US11213529B2, “Salt of substituted urea derivative and use thereof in medicine” (SUNSHINE LAKE PHARMA CO. LTD., priority 2017, dated 2022)
Where two headings read alike, the source gives them in different places.

What was measured:
[1] = Pharmacokinetics experiments of the salts of compound (I), oral capsules; assay type: in vivo, Beagle dogs
Protocol: The free base 1-(5-(tert-butyl)isoxazol-3-yl)-3-(4-((4-(3-morpholinopropoxy)phenyl) ethynyl)phenyl)urea, various salts or crystalline forms thereof were filled into capsules for oral administration respectively. Male Beagle dogs (6-10 kg) were grouped randomly, each group has 3, one was administered with free base by oral, others with various salts or crystalline forms thereof by oral at a dosage of 5 mg/kg. Blood samples were collected at 0.25, 0.5, 1.0, 2.0, 4.0, 6.0, 8.0, 12 and 24 hours after the administration. Standard curve was plotted based on concentrations of the samples in a suitable range, the concentrations of test compounds in plasma samples were determined by using Agilent 6430 LC-MS/MS under MRM mode, and quantitative analysis was performed. Pharmacokinetic parameters were calculated according to drug concentration-time curve using a noncompartmental method by WinNonLin 6.3 software.

[2] = for Purity/%: HPLC
Text: Samples were taken at fifth and tenth day, appearance was observed and purity was detected by HPLC.

[3] = for Appearance / Purity/%: illumination 4500±500 lx, UV; for Purity/%: HPLC
[4] = male Beagle dogs, oral capsule, 5 mg/kg, plasma
[5] = High humidity (25° C., RH 90% ± 5%), 0 day
[6] = High humidity (25° C., RH 90% ± 5%), 5 days
[7] = High humidity (25° C., RH 90% ± 5%), 10 days
[8] = High temperature (60° C. ± 2° C.), 0 day
[9] = High temperature (60° C. ± 2° C.), 5 days
[10] = High temperature (60° C. ± 2° C.), 10 days
[11] = dog, male Beagle dogs, oral capsule, 5 mg/kg, plasma

**Q.** For CC(C)(C)c1cc(NC(=O)Nc2ccc(C#Cc3ccc(OCCCN4CCOCC4)cc3)cc2)no1.O=S(=O)(O)c1ccccc1 [Benzene sulfonate crystaline form I], which absorption ([1]; beagle dogs, oral 5 mg/kg) is on record?
**A.** faster

**Q.** And the “exposure level compared with the free base” value ([1]; beagle dogs, oral 5 mg/kg)?
**A.** higher

**Q.** And the AUCINF [1, 4]?
**A.** 592 ng·h/mL

**Q.** And the AUClast [1, 4]?
**A.** 575 ng·h/mL

**Q.** And the Cmax [1, 4]?
**A.** 92.3 ng/mL

**Q.** What about the MRTINF [1, 4] of the same compound?
**A.** 6.55 h

**Q.** And the T1/2 [1, 4]?
**A.** 5.26 h

**Q.** What about the Tmax [1, 4] of the same compound?
**A.** 1 h

**Q.** What about the Appearance [2, 5] of the same compound?
**A.** yellow

**Q.** What about the Purity/% [2, 5] of the same compound?
**A.** 98.61%

**Q.** What about the Appearance [2, 6] of the same compound?
**A.** yellow

**Q.** What about the Hygroscopic weight gain/% [2, 6] of the same compound?
**A.** 0.388%

**Q.** And the Purity/% [2, 6]?
**A.** 98.59%

**Q.** What about the Appearance [2, 7] of the same compound?
**A.** yellow

**Q.** And the Hygroscopic weight gain/% [2, 7]?
**A.** 1.100%

**Q.** And the Purity/% [2, 7]?
**A.** 98.59%

**Q.** And the Appearance [2, 8]?
**A.** yellow

**Q.** What about the Purity/% [2, 8] of the same compound?
**A.** 98.61%

**Q.** And the Appearance [2, 9]?
**A.** yellow

**Q.** And the Purity/% [2, 9]?
**A.** 98.64%

**Q.** And the Appearance [2, 10]?
**A.** yellow

**Q.** What about the Purity/% [2, 10] of the same compound?
**A.** 98.61%

**Q.** What about the hygroscopicity characteristics ([2]; from weight gain under high humidity for 10 days) of the same compound?
**A.** slightly hygroscopicity (less than 2% but no less than 0.2%)

**Q.** What about the “change of appearance and purity” value ([2]; high humidity (25° C., RH 90%±5%)) of the same compound?
**A.** have not been changed distinctly

**Q.** And the “change of appearance and purity” value ([2]; high temperature (60° C.±2° C.))?
**A.** have not been changed distinctly

**Q.** What about the “change of appearance and purity” value ([3]; illumination) of the same compound?
**A.** have not been changed distinctly

**Q.** What about the Appearance ([3]; 0 day) of the same compound?
**A.** yellow

**Q.** And the Purity/% ([3]; 0 day)?
**A.** 98.61%

**Q.** What about the Appearance ([3]; 5 days) of the same compound?
**A.** yellow

**Q.** What about the Purity/% ([3]; 5 days) of the same compound?
**A.** 98.67%

**Q.** What about the Appearance ([3]; 13 days) of the same compound?
**A.** yellow

**Q.** What about the Purity/% ([3]; 13 days) of the same compound?
**A.** 98.71%

**Q.** For CC(C)(C)c1cc(NC(=O)Nc2ccc(C#Cc3ccc(OCCCN4CCOCC4)cc3)cc2)no1 [Free base, 1-(5-(tert-butyl)isoxazol-3-yl)-3-(4-((4-(3-morpholinopropoxy)phenyl)ethynyl)phenyl)urea], which AUC(0-inf) [1, 11] is on record?
**A.** 423 ng·h/mL

**Q.** And the AUC(0-t) [1, 11]?
**A.** 389 ng·h/mL

**Q.** And the MRT inf [1, 11]?
**A.** 7.52 h

**Q.** What about the half-life [1, 11] of the same compound?
**A.** 357 min

**Q.** And the Cmax ([1]; dog, male Beagle dogs, oral capsule, 5 mg/kg, plasma, read-out: Cmax)?
**A.** 60.9 ng/mL

**Q.** And the Tmax ([1]; dog, male Beagle dogs, oral capsule, 5 mg/kg, plasma, read-out: Tmax)?
**A.** 1.67 h

**Q.** Which results are given for CC(C)(C)c1cc(NC(=O)Nc2ccc(C#Cc3ccc(OCCCN4CCOCC4)cc3)cc2)no1.Cl [Hydrochloride crystaline form I]?
**A.** AUCINF [1, 4]: 371 ng·h/mL; AUClast [1, 4]: 358 ng·h/mL; Cmax [1, 4]: 51.2 ng/mL; MRTINF [1, 4]: 6.5 h; T1/2 [1, 4]: 4.86 h; Tmax [1, 4]: 1.67 h

**Q.** With Br.CC(C)(C)c1cc(NC(=O)Nc2ccc(C#Cc3ccc(OCCCN4CCOCC4)cc3)cc2)no1 [Hydrobromide crystaline form I] as the compound, how does the AUCINF [1, 4] read?
**A.** 225 ng·h/mL

**Q.** And the AUClast [1, 4]?
**A.** 401 ng·h/mL

**Q.** What about the Cmax [1, 4] of the same compound?
**A.** 36.4 ng/mL

**Q.** What about the MRTINF [1, 4] of the same compound?
**A.** 8.54 h

**Q.** And the T1/2 [1, 4]?
**A.** 6.64 h

**Q.** What about the Tmax [1, 4] of the same compound?
**A.** 1.33 h
